# ChEMBL document CHEMBL1201862, “PubChem BioAssay data set” (2004)
#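 Growth conditions: 96-well plates. Treatment: test compound, 48 hours, 5 concentrations. Analysis: linear interpolation between bracketing concentrations; unreached endpoints set to highest concentration. At the GI50, growth is halved.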 Active and inactive are the calls of the source. Cut-off read from the data, not from the text of the source: active = GI50 up to about 1.1 µM and inactive = higher.
# Tests used:
# Experiment in all cases: DTP human tumour cell line panel, 48 h
# 786-0 = tested on: 786-0
# A498 = tested on: A498
# A549 = tested on: A549
# ACHN = tested on: ACHN
# BT-549 = tested on: BT-549
# CAKI-1 = tested on: CAKI-1
# CCRF-CEM = tested on: CCRF-CEM
# COLO 205 = tested on: COLO 205
# DU-145 = tested on: DU-145
# EKVX = tested on: EKVX
# HCC 2998 = tested on: HCC 2998
# HCT-116 = tested on: HCT-116
# HCT-15 = tested on: HCT-15
# HL-60 = tested on: HL-60
# HOP-62 = tested on: HOP-62
# HT-29 = tested on: HT-29
# Hs-578T = tested on: Hs-578T
# IGROV-1 = tested on: IGROV-1
# K562 = tested on: K562
# KM12 = tested on: KM12
# LOX IMVI = tested on: LOX IMVI
# M14 = tested on: M14
# MCF7 = tested on: MCF7
# MDA-MB-231 = tested on: MDA-MB-231
# MDA-MB-435 = tested on: MDA-MB-435
# Malme-3M = tested on: Malme-3M
# NCI-H23 = tested on: NCI-H23
# NCI-H460 = tested on: NCI-H460
# NCI-H522 = tested on: NCI-H522
# NCI/ADR-RES = tested on: NCI/ADR-RES
# OVCAR-3 = tested on: OVCAR-3
# OVCAR-5 = tested on: OVCAR-5
# OVCAR-8 = tested on: OVCAR-8
# PC-3 = tested on: PC-3
# RPMI-8226 = tested on: RPMI-8226
# RXF 393 = tested on: RXF 393
# SF-268 = tested on: SF-268
# SF-295 = tested on: SF-295
# SF-539 = tested on: SF-539
# SK-MEL-28 = tested on: SK-MEL-28
# SK-MEL-2 = tested on: SK-MEL-2
# SK-MEL-5 = tested on: SK-MEL-5
# SN12C = tested on: SN12C
# SNB-19 = tested on: SNB-19
# SR = tested on: SR
# SW-620 = tested on: SW-620
# T47D = tested on: T47D
# TK-10 = tested on: TK-10
# U-251 = tested on: U-251
# UACC-257 = tested on: UACC-257
# UACC-62 = tested on: UACC-62
# UO-31 = tested on: UO-31
structure (smiles),measurement,setting,value
O=C(Oc1c(I)ccccc1=O)c1ccc([N+](=O)[O-])cc1,GI50,786-0,26.9 µM (inactive)
same,GI50,A498,0.409 µM (active)
same,GI50,A549,21.6 µM (inactive)
same,GI50,ACHN,24.8 µM (inactive)
same,GI50,BT-549,18.6 µM (inactive)
same,GI50,CAKI-1,24.4 µM (inactive)
same,GI50,CCRF-CEM,22.5 µM (inactive)
same,GI50,COLO 205,14.7 µM (inactive)
same,GI50,DU-145,11.7 µM (inactive)
same,GI50,EKVX,12.4 µM (inactive)
same,GI50,HCC 2998,23.2 µM (inactive)
same,GI50,HCT-116,26.1 µM (inactive)
same,GI50,HCT-15,12.9 µM
same,GI50,HL-60,18.2 µM (inactive)
same,GI50,HOP-62,33.3 µM (inactive)
same,GI50,HT-29,12.3 µM (inactive)
same,GI50,Hs-578T,24.8 µM (inactive)
same,GI50,IGROV-1,14.9 µM (inactive)
same,GI50,K562,24.2 µM (inactive)
same,GI50,KM12,18.9 µM (inactive)
same,GI50,LOX IMVI,19.6 µM (inactive)
same,GI50,M14,26.2 µM (inactive)
same,GI50,MCF7,17.2 µM (inactive)
same,GI50,MDA-MB-231,23.3 µM (inactive)
same,GI50,MDA-MB-435,19.4 µM (inactive)
same,GI50,Malme-3M,14.6 µM (inactive)
same,GI50,NCI-H23,42.4 µM (inactive)
same,GI50,NCI-H460,11.4 µM (inactive)
same,GI50,NCI-H522,17.7 µM (inactive)
same,GI50,NCI/ADR-RES,40.6 µM (inactive)
same,GI50,OVCAR-3,13.6 µM (inactive)
same,GI50,OVCAR-5,35.5 µM (inactive)
same,GI50,OVCAR-8,22.3 µM (inactive)
same,GI50,PC-3,27.4 µM (inactive)
same,GI50,RPMI-8226,23.2 µM (inactive)
same,GI50,RXF 393,3.08 µM (inactive)
same,GI50,SF-268,15.5 µM (inactive)
same,GI50,SF-295,23.2 µM (inactive)
same,GI50,SF-539,17.9 µM (inactive)
same,GI50,SK-MEL-28,8.09 µM (inactive)
same,GI50,SK-MEL-2,20.5 µM (inactive)
same,GI50,SK-MEL-5,0.51 µM (active)
same,GI50,SN12C,20.4 µM (inactive)
same,GI50,SNB-19,20.4 µM (inactive)
same,GI50,SR,4.34 µM (inactive)
same,GI50,SW-620,30.1 µM (inactive)
same,GI50,T47D,0.0785 µM (active)
same,GI50,TK-10,30.8 µM (inactive)
same,GI50,U-251,16.8 µM (inactive)
same,GI50,UACC-257,17 µM (inactive)
same,GI50,UACC-62,22.6 µM (inactive)
same,GI50,UO-31,17.3 µM (inactive)
